Assays:
[1] = target: full-length human ATR protein (ATR/ATRIP) (Homo sapiens (Human), UniProt Q13535); assay: Binding Assay ATR (TR-FRET, tracer A displacement); settings: displacement of fluorescent tracer A from GST-ATR/ATRIP
Text: To determine of binding activity of the test compounds, full-length human ATR protein was expressed and purified together with ATRIP as described above. Furthermore, a fluorescently labelled compound (tracer A as described above) was used as a tracer molecule. Detection of the binding event of the tracer was achieved by time-resolved fluorescence energy transfer (TR-FRET). We used an anti-GST-Terbium antibody (CisBio) that binds to the GST-tag at the N-terminus of ATR-kinase. Excitation of Terbium with 337 nm light results in emission of fluorescent light with 545 nm. In case a tetrameric complex has formed (antiGST-Tb+GST-ATR+Strp2-ATRIP+tracer), part of the energy will be transferred from the Terbium to the fluorophore that itself emits light of 570 nm. Displacement of the fluorescent tracer by a test compound leads to a reduction of the TR-FRET-signal.
For the assay 50 nl of a 100-fold concentrated solution of the test compound in DMSO was pipetted into a black low volume 384 well microtiter plate (MTP, Greiner Bio-One, Frickenhausen, Germany). To prepare the ATR-working solution, ATR/ATRIP stock solution was diluted in assay buffer [50 mM HEPES (pH 7.0), 10 mM MgCl2, 1 mM DTT, 0.01% (w/v) Igepal, 0.01% (w/v) BSA] to 4.2 nM protein concentration (concentration may vary from lot to lot of protein preparation). AntiGST-Tb antibody was diluted to 4.2 nM. The ATR-working solution was incubated for 30 min at 22° C. prior to dispensing to pre-form the complex of antiGST-Tb+GST-ATR+ATRIP. Then, 3 μl of the ATR-working solution were added to the test compound and the mixture was incubated for 10 min at 22° C. to allow pre-binding of the test compounds to ATR/ATRIP. Then, 2 μl of a 100 nM solution of tracer A in assay buffer were added to the ATR-working solution. The resulting mixture was incubated for 30 min at 22° C. The measurement of the TR-FRET signal was performed in a standard HTRF-compatible MTP reader instrument (e.g. BMG Pherastar) by recording the fluorescence emissions at 545 nm and 570 nm after excitation at 337-350 nm. The ratio between emission at 570 nm divided by emission at 545 nm was calculated to give the well ratio. The experimental data (well ratios) were normalised by the following way: positive control contained ATR-working solution plus tracer A solution (=0% inhibition), the negative control contained all components except GST-ATR/ATRIP (=100% inhibition). Usually the compounds were tested on the same MTP in 11 different concentrations in the range of 20 μM to 0.1 nM (20 μM, 5.9 μM, 1.7 μM, 0.51 μM, 0.15 μM, 44 nM, 13 nM, 3.8 nM, 1.1 nM, 0.33 nM and 0.1 nM). The dilution series were prepared separately before the assay on the level of the 100 fold concentrated solutions in DMSO by serial 1:3.4 dilutions in duplicate values for each concentration. IC50 values were calculated by a 4 parameter fit using standard software (GraphPad prism or equivalent).

HeLa cells = assay: Proliferation assay (HeLa, crystal violet); format: cell-based; settings: Homo sapiens, 96 h, 4 days incubation, crystal violet staining, read-out: Inhibition of HeLa cell proliferation
Procedure: Human tumour cells were originally obtained from the American Type Culture Collection (ATCC), the Deutsche Sammlung von Mikroorganismen und Zellkulturen (DSMZ, German Collection of Microorganisms and Cell Cultures) or Epo GmbH, Berlin.
Adherently growing cells (HeLa, HeLa-MaTu-ADR, HT-144, Lovo, HT-29, NCI-H460, DU145, Caco2, B16F10) were plated out in a density of 1500-4000 cells/measurement point, depending on the rate of growth of the cell line, in a 96-well multititre plate in 200 μl of growth medium (DMEM/HAMS F12, 2 mM L-glutamine, 10% foetal calf serum). After 24 hours, the cells of one plate (zero plate) were dyed with crystal violet (see below), whereas the medium of the other plates was replaced with fresh culture medium (200 μl) to which the test substances were added in various concentrations (0 μM, and also in the range of 0.001-10 μM; the final concentration of the solvent dimethyl sulphoxide was 0.1 or 0.5%). The cells were incubated for 4 days in the presence of the test substances. Cell proliferation was determined by staining the cells with crystal violet: the cells were fixed at room temperature for 15 min by adding 20 μl/measurement point of an 11% strength glutaraldehyde solution. After washing the fixed cells three times with water, the plates were dried at room temperature. The cells were stained by adding 100 μl/measurement point of a 0.1% strength crystal violet solution (pH adjusted to pH 3 by adding acetic acid). After washing the cells three times with water, the plates were dried at room temperature. The dye was dissolved by adding 100 μl/measurement point of a 10% strength acetic acid solution. Absorbance was determined photometrically at a wavelength of 595 nm. The percentage change in cell growth was calculated by normalizing the measured values to the absorbance values of the zero plate (=0%) and the absorbance of the untreated (0 μM) cells (=100%). The IC50 values were determined by means of a four parameter fit.
Inhibition of proliferation of HeLa cells by compounds according to the present invention, determined as described above. All IC50 (inhibitory concentration at 50% of maximal effect) values are indicated in M, “n.t.” means that the compounds have not been tested in the respective assay.

full-length human ATR protein (ATR/ATRIP), sequence (Q13535 other isoform, or with tags, fused parts or gaps): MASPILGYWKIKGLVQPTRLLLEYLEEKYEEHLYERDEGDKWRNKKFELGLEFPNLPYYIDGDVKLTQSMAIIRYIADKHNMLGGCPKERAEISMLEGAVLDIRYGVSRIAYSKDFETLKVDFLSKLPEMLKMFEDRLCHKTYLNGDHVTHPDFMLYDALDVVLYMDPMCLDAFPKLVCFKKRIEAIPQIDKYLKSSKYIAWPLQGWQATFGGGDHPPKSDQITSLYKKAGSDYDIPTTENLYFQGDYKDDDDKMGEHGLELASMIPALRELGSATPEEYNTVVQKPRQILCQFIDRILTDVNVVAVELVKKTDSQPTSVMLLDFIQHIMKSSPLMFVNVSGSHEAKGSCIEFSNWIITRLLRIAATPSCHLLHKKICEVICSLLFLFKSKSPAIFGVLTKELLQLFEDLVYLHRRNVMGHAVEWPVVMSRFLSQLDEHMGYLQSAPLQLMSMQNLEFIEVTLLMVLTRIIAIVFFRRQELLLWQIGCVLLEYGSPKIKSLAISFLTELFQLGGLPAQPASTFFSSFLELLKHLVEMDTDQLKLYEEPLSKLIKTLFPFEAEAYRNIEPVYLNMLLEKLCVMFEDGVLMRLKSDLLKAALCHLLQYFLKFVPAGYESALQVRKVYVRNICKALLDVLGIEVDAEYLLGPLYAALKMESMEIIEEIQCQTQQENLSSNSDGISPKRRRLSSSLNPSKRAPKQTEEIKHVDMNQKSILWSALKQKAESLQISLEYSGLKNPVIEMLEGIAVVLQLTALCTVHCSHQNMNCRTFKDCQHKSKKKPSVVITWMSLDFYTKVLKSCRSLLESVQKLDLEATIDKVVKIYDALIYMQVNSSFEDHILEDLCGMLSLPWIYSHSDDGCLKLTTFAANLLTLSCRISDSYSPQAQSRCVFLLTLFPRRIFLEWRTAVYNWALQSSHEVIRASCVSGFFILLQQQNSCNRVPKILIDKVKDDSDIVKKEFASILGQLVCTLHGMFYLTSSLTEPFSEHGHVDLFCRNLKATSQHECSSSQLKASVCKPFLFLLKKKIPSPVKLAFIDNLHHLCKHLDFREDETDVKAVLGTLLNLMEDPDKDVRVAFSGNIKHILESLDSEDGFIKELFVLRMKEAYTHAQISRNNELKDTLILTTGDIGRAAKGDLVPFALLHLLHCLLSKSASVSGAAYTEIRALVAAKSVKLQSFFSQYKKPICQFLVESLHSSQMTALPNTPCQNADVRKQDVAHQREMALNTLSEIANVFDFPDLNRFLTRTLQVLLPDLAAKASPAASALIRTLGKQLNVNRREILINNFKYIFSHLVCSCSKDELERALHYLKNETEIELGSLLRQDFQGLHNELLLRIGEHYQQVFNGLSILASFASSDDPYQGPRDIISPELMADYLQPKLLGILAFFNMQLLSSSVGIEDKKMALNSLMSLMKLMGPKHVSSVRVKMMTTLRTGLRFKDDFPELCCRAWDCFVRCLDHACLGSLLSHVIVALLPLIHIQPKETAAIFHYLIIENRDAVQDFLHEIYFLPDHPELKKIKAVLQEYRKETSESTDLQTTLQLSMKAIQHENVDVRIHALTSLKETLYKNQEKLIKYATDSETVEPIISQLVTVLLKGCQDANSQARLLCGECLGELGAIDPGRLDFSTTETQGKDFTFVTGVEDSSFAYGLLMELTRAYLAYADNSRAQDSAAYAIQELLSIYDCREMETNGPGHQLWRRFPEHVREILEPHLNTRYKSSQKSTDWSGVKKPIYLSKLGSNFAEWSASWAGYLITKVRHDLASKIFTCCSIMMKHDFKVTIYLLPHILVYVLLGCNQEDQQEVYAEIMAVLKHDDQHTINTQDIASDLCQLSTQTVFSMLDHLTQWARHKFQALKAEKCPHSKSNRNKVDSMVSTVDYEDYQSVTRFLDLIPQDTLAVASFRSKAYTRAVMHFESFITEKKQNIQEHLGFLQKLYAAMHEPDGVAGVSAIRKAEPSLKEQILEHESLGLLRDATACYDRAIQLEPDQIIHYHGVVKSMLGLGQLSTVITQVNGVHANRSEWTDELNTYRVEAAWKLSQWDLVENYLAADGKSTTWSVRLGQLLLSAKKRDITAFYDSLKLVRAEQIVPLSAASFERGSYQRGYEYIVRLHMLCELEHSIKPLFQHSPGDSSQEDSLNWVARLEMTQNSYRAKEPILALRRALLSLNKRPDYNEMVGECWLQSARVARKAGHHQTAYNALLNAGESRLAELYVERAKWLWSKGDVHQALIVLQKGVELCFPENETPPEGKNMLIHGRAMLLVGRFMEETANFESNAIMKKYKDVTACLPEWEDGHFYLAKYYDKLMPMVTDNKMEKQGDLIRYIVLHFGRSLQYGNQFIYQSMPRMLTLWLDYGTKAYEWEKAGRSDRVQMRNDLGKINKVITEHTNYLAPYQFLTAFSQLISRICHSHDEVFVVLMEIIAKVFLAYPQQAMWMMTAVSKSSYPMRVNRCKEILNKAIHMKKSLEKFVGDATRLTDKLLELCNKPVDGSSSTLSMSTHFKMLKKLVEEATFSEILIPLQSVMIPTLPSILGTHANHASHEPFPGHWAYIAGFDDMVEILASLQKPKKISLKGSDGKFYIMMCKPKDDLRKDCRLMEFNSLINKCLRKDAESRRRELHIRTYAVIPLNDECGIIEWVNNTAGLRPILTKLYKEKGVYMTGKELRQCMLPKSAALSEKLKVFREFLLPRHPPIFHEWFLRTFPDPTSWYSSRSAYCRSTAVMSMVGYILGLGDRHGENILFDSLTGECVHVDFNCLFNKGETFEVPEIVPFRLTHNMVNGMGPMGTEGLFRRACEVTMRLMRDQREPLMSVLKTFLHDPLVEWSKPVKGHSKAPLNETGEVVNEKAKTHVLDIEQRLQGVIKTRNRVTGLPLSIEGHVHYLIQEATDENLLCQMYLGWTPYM
full-length human ATR protein (ATR/ATRIP), sequence (Q8WXE1 other isoform, or with tags, fused parts or gaps partner): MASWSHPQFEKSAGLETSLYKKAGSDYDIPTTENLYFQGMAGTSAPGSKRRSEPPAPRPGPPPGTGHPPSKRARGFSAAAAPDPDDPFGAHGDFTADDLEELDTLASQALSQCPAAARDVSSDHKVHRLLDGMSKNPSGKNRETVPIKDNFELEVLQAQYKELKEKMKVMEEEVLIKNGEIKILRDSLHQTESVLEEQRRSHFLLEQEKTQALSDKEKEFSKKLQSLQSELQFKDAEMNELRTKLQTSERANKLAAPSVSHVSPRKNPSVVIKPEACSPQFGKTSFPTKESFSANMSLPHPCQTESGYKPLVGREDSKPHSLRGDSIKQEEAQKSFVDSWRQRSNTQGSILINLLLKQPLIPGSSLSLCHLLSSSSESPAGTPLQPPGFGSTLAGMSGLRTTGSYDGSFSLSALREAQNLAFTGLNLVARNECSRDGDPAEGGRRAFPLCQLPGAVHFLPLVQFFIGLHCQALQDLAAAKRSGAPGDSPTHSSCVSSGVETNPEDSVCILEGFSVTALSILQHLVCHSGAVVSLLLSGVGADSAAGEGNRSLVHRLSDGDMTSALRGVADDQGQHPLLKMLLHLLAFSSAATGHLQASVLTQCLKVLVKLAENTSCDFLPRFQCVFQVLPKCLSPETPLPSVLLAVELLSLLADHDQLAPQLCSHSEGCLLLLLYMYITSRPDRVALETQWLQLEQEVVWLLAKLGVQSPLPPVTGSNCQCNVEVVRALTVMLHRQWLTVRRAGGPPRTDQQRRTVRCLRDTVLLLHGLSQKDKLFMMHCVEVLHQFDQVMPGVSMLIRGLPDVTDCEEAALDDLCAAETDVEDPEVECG

Structure (SMILES) | IC50 [1] [nM] | IC50 (HeLa cells) [nM]
Cc1cnc(-c2ccn[nH]2)c2nc(N3CCOC[C@H]3C)cc(-c3cncn3C)c12 [Example 15, 5-methyl-4-(1-methyl-1H-imidazol-5-yl)-2-[(3R)-3-methylmorpholin-4-yl]-8-(1H-pyrazol-5-yl)-1,7-naphthyridine] | 5.86 | 145
Cc1cnc(-c2ccn[nH]2)c2nc(N3CCOC[C@H]3C)cc(-c3ccc(N4CCNCC4)cc3F)c12 [Example 6, 4-[2-fluoro-4-(piperazin-1-yl)phenyl]-5-methyl-2-[(3R)-3-methylmorpholin-4-yl]-8-(1H-pyrazol-5-yl)-1,7-naphthyridine] | 14.2 | 296
Cc1cnc(-c2ccn[nH]2)c2nc(N3CCOC[C@H]3C)cc(-c3cccnc3F)c12 [Example 3, 4-(2-fluoropyridin-3-yl)-5-methyl-2-[(3R)-3-methylmorpholin-4-yl]-8-(1H-pyrazol-5-yl)-1,7-naphthyridine] | 8.13 | 154
COC(=O)c1cc(N2CCOC[C@H]2C)nc2c(-c3ccn[nH]3)ncc(C)c12 [Example 14, methyl 5-methyl-2-[(3R)-3-methylmorpholin-4-yl]-8-(1H-pyrazol-5-yl)-1,7-naphthyridine-4-carboxylate] | 53 | 440
Cc1cnc(-c2ccn[nH]2)c2nc(N3CCOC[C@H]3C)cc(-c3ccnn3C)c12 [Example 2, 5-methyl-2-[(3R)-3-methylmorpholin-4-yl]-4-(1-methyl-1H-pyrazol-5-yl)-8-(1H-pyrazol-5-yl)-1,7-naphthyridine] | 6.02 | 63.4
Cc1ncc(-c2cc(N3CCOC[C@H]3C)nc3c(-c4ccn[nH]4)ncc(C)c23)s1 [Example 16, 5-methyl-2-[(3R)-3-methylmorpholin-4-yl]-4-(2-methyl-1,3-thiazol-5-yl)-8-(1H-pyrazol-5-yl)-1,7-naphthyridine] | 14.2 | 33.9
CCOP(C)(=O)c1cc(N2CCOC[C@H]2C)nc2c(-c3ccn[nH]3)ncc(C)c12 (stereo partly drawn) [Example 17, ethyl methyl{5-methyl-2-[(3R)-3-methylmorpholin-4-yl]-8-(1H-pyrazol-5-yl)-1,7-naphthyridin-4-yl}phosphinate] | 42.2 | 112
Cc1nc(S(C)(=O)=O)ccc1-c1cc(N2CCOC[C@H]2C)nc2c(-c3ccn[nH]3)ncc(C)c12 [Example 4, 5-methyl-4-[2-methyl-6-(methylsulfonyl)pyridin-3-yl]-2-[(3R)-3-methylmorpholin-4-yl]-8-(1H-pyrazol-5-yl)-1,7-naphthyridine] | 37.3 | 333
Cc1cnc(-c2ccn[nH]2)c2nc(N3CCOC[C@H]3C)cc(N3CCN(S(C)(=O)=O)CC3)c12 [Example 12, 5-methyl-2-[(3R)-3-methylmorpholin-4-yl]-4-[4-(methylsulfonyl)piperazin-1-yl]-8-(1H-pyrazol-5-yl)-1,7-naphthyridine] | 5.49 | 440
CCS(=O)(CC)=Nc1cc(N2CCOC[C@H]2C)nc2c(-c3ccn[nH]3)ncc(C)c12 [Example 9, 4-[diethyl(oxido)-λ^6-sulfanylidene]amino-5-methyl-2-[(3R)-3-methylmorpholin-4-yl]-8-(1H-pyrazol-5-yl)-1,7-naphthyridine] | 14.1 | 117
Cc1cnc(-c2ccn[nH]2)c2nc(N3CCOC[C@H]3C)cc(N3CCOCC3)c12 [Example 10, 5-methyl-2-[(3R)-3-methylmorpholin-4-yl]-4-(morpholin-4-yl)-8-(1H-pyrazol-5-yl)-1,7-naphthyridine] | 8.91 | 109
Cc1cnc(-c2ccn[nH]2)c2nc(N3CCOC[C@H]3C)cc(-c3cnc(Cl)n3C)c12 [Example 5, 4-(2-chloro-1-methyl-1H-imidazol-5-yl)-5-methyl-2-[(3R)-3-methylmorpholin-4-yl]-8-(1H-pyrazol-5-yl)-1,7-naphthyridine] | 5.07 | 85.1
Cc1cnc(-c2ccn[nH]2)c2nc(N3CCOC[C@H]3C)cc(N(C)CC(C)(C)C)c12 [Example 13, N-(2,2-dimethylpropyl)-N,5-dimethyl-2-[(3R)-3-methylmorpholin-4-yl]-8-(1H-pyrazol-5-yl)-1,7-naphthyridin-4-amine] | 4.93 | 745
Cc1cnc(-c2ccn[nH]2)c2nc(N3CCOC[C@H]3C)cc(-c3cccc(F)c3F)c12 [Example 7, 4-(2,3-difluorophenyl)-5-methyl-2-[(3R)-3-methylmorpholin-4-yl]-8-(1H-pyrazol-5-yl)-1,7-naphthyridine] | 8.27 | 499
COc1ccc(-c2cc(N3CCOC[C@H]3C)nc3c(-c4ccn[nH]4)ncc(C)c23)cc1 [Example 25, 4-(4-methoxyphenyl)-5-methyl-2-[(3R)-3-methylmorpholin-4-yl]-8-(1H-pyrazol-5-yl)-1,7-naphthyridine] | 25.4 | –
COc1ccc(-c2cc(N3CCOC[C@H]3C)nc3c(-c4ccn[nH]4)ncc(C)c23)cn1 [Example 27, 4-(6-methoxypyridin-3-yl)-5-methyl-2-[(3R)-3-methylmorpholin-4-yl]-8-(1H-pyrazol-5-yl)-1,7-naphthyridine] | 15.4 | –
COc1cccc(-c2cc(N3CCOC[C@H]3C)nc3c(-c4ccn[nH]4)ncc(C)c23)c1OC [Example 37, 4-(2,3-dimethoxyphenyl)-5-methyl-2-[(3R)-3-methylmorpholin-4-yl]-8-(1H-pyrazol-5-yl)-1,7-naphthyridine] | 13.8 | –
Cc1cnc(-c2ccn[nH]2)c2nc(N3CCOC[C@H]3C)cc(OC(C)C)c12 [Example 1, 5-methyl-2-[(3R)-3-methylmorpholin-4-yl]-4-(propan-2-yloxy)-8-(1H-pyrazol-5-yl)-1,7-naphthyridine] | 25.9 | 498
Cc1cnc(-c2ccn[nH]2)c2nc(N3CCOC[C@H]3C)cc(-c3ccccc3S(C)(=O)=O)c12 [Example 31, 5-methyl-2-[(3R)-3-methylmorpholin-4-yl]-4-[2-(methylsulfonyl)phenyl]-8-(1H-pyrazol-5-yl)-1,7-naphthyridine] | 47.2 | –
Cc1cnc(-c2ccn[nH]2)c2nc(N3CCOC[C@H]3C)cc(N3CCC(CO)CC3)c12 [Example 11, (1-{5-methyl-2-[(3R)-3-methylmorpholin-4-yl]-8-(1H-pyrazol-5-yl)-1,7-naphthyridin-4-yl}piperidin-4-yl)methanol] | 3.8 | 33.2

From patent US10729680B2, “5-substituted 2-(morpholin-4-yl)-1,7-naphthyridines” (BAYER PHARMA AKTIENGESELLSCHAFT, priority 2016, dated 2020)
